Test results published in ChEMBL document CHEMBL4414611, “Hypascyrins A-E, Prenylated Acylphloroglucinols from Hypericum ascyron” (2019).
Converted amounts (≈) assume the structure as drawn.

Assays:
Format in all cases: functional
Escherichia coli = assay: Antibacterial activity against Escherichia coli assessed as reduction in bacterial growth incubated for 20 hrs by broth microdilution assay
Staphylococcus aureus [1] = assay: Antibacterial activity against methicillin resistant Staphylococcus aureus assessed as reduction in bacterial growth incubated for 20 hrs by broth microdilution assay
Staphylococcus aureus [2] = assay: Antibacterial activity against methicillin susceptible Staphylococcus aureus assessed as reduction in bacterial growth incubated for 20 hrs by broth microdilution assay
Bacillus subtilis = assay: Antibacterial activity against Bacillus subtilis assessed as reduction in bacterial growth incubated for 20 hrs by broth microdilution assay

Structure (SMILES) | MIC50 (Escherichia coli) [µM] | MIC50 (Staphylococcus aureus [1]) [µM] | MIC (Staphylococcus aureus [2]) [µM] | MIC50 (Staphylococcus aureus [2]) [µM] | MIC (Bacillus subtilis) [µM] | MIC (Staphylococcus aureus [1]) [µM]
CCC(C)C(=O)C1=C(O)C([C@@H]2C=C(C(C)C)CC[C@]2(C)O)=C(O)C(CC=C(C)C)(CC=C(C)C)C1=O (stereo partly specified) | > 64 | 8 (≈ 3.99 µg/mL) | 4 to 8 (≈ 1.99 to 3.99 µg/mL) | 8 (≈ 3.99 µg/mL) | 4 (≈ 1.99 µg/mL) | 
CC(C)=CCC1(CC=C(C)C)C(=O)C(C(=O)CC(C)C)=C(O)C([C@@H]2C=C(C(C)C)CC[C@]2(C)O)=C1O | > 64 | 4 (≈ 1.99 µg/mL) | 4 (≈ 1.99 µg/mL) | 4 (≈ 1.99 µg/mL) | 4 (≈ 1.99 µg/mL) | 4 to 8 (≈ 1.99 to 3.99 µg/mL)
C=C(C)[C@@H]1CC[C@](C)(O)[C@H](C2=C(O)C(CC=C(C)C)(CC=C(C)C)C(=O)C(C(=O)CC(C)C)=C2O)C1 | > 64 | 2 (≈ 0.997 µg/mL) | 1 to 2 (≈ 0.499 to 0.997 µg/mL) | 2 (≈ 0.997 µg/mL) | 2 (≈ 0.997 µg/mL) | 
